Where no end group is shown, it is not given here.
Columns and labels:
[1] = system: T47D breast cancer xenografts; experiment: T-47D breast cancer xenograft, SorC13 with Paclitaxel (Example 27); format: in vivo, NOD/SCID mice
Experimental: Tumor volumes (V) were calculated by caliper measurement using standard measurements of the width (W), length (L) and thickness (T) of tumors. Animals were randomized into treatment groups so that the median tumor volumes of each group were similar at the start of dosing. Percentage ΔT/ΔC values, as a measure of efficacy, were determined where ΔC refers to change in volume of control or untreated tumor, and ΔT refers to change in volume of treated tumor.
Animals were intraperitoneally (i.p.) injected with the vehicular control, or the low, medium or high doses of CAT or CAT and SorC13. Mice received low medium or high doses of CAT or CAT and SorC13 by i.p. injection every day for 12 days or CAT injections as set out in Table 10. Paclitaxel was injected first, followed by carboplatin 30 minutes later and then SorC13. The tumor volume and body weights were measured every day. As well, general health of the animals was monitored every day.
The human […] breast cancer cell line T-47D (ATCC #HTB-133), was cultured in growth media prepared with ATCC complete growth medium. The base medium for the T-47D cell line is ATCC-formulated RPMI-1640 Medium. The complete growth medium is supplemented with 0.2 Units/ml bovine insulin and fetal bovine serum to a final concentration of 10% (v/v). Cells were cultured at 37° C. in an atmosphere of 95% air and 5% carbon dioxide with sub-culturing done according to ATCC guidelines.
The cell preparation, formulation, implantation, measurement and treatment procedures were otherwise as described in Example 26 and Table 10 but with Paclitaxel at low (6 mg/kg), medium (10 mg/kg) and high (16 mg/kg) doses.

[2] = system: MDA-MB-468 (MB 468) breast cancer cell line; experiment: Induction of apoptosis (APO-ONE caspase 3/7) and cell viability (CellTiter Blue); format: cell-based, human; design: key: decreased (+); or not (−); conditions: SorC27
Experimental: MCF-7, MDA-MB-231, MDA-MB-415, MDA-MB-468 were grown in DMEM modified with 10% (v/v) fetal bovine serum, 2 mM L-glutamine and 50 ug/mL each of penicillin and streptomycin.
(§1) The levels of apoptotic induction and cell viability were determined by multiplexing the measurements for single samples. CellTiter Blue and APO-ONE assay systems from Promega allows the determination of cell viability correlated to cell number, and induction of apoptosis. This protocol uses a fluorgenic peptide that contains a peptide recognition-sequence for caspase 3 and caspase 7, […] proteolytic enzymes of the apoptosis cascade. The CellTiter Blue reagent was added to wells in a 96-well plate containing cells under test, immediately after addition of peptide solution or vehicle. About 5000 cells were plated into the wells the day before. At the chosen time (Day 1, Day 2 etc.) the fluorescence was measured at 590 nm (emission) after excitation at 560 nm. The caspase 3/7 activity was measured (485 nm Ex/527 nm Em) in the same wells after adding 120 uL of the Apo-ONE reagent, freeze fracturing at −80° C. for 1 hr, and incubating for 1 hr at room temperature.
For this work, the concentrations of SorC13 and SorC27 used were 0 uM, 1 uM, 10 uM and 100 uM. The experiments extended over a 5 to 7 day period. […]

[3] = Single dose acute intravenous bolus toxicity study with 5-day observation; format: in vivo, CD-1 mice
Experimental: A single dose acute intravenous bolus injection toxicity study followed by a 5-day observation period in CD-1 mice was performed as described below. Three doses of each of SorC13 and SorC27 were used (10, 100 and 500 mg/Kg). Daily cage-side exams for 5 days with hourly exams for the first 4 hrs post injection. As part of the analysis the following assessments were made: body weights prior to dosing and at termination; all animals were necropsied (including preparation of bone marrow smears); organ weights were taken of all animals.
After in vivo i.v. injection into CD1 mice, SorC13 caused a small spike (approximately 25%) in blood pressure in the first 15 min which disappeared by 1 hour.

[4] = system: HEY C2 ovarian cancer cell line; experiment: Induction of apoptosis (APO-ONE caspase 3/7) and cell viability (CellTiter Blue); format: cell-based, human; design: key to Decline in cell viability: decreased (+); or not (−)
Experimental: HeyC2 was cultured in RPMI 1640 medium supplemented with 1.0 mM sodium pyruvate, 0.01 mg/mL insulin and 10% (v/v) fetal bovine serum.
as §1
For this work, the concentrations of SorC13 and SorC27 used were 0 uM, 1 uM, 10 uM and 100 uM. The experiments extended over a 5 to 7 day period. All measurements were done in quadruplicate with both a blank (no cells) and control (vehicle, no peptide) used to correct the test measurements. The time-response data, and the dose-response data were plotted as means±standard error of the mean. Any statistical comparisons were done with the Student's t-test or by ANOVA analysis over the dose course. The level of statistical significance was considered to be the 95% confidence interval (i.e., p≤0.05).

[5] = Solubility (aqueous); conditions: aqueous
[6] = Clearance route in iv mice; conditions: i.v.
[7] = Tissue distribution of Cy5.5-labeled peptides by optical imaging; format: in vivo, CD1 mice
Source text: SorC13 and SorC27 were labeled with the near-infrared probe, Cy5.5. SorC13 was labeled at lysine-1 and lysine-8 with the infrared fluorescent probe cy5.5 through reaction with Cy5.5 NHS ester-activated process. SorC27 was labeled at the single cysteine thiol with Cy5.5 maleamide-activated reaction. The labeled peptides were purified with a combination of size exclusion chromatography and HPLC. The label, Cy5.5, fluoresces in the infra-red region after excitation with a scanning laser. The low energy laser is able to penetrate the animal to about 1 cm and, thus, by scanning prone and supine positions, the presence of the tagged peptides can be quantified in three dimensions.
Cy5.5-labeled peptides were intravenously injected into CD1 mice (4 for each compound) at 100 ug per animal in 100 uL, and animals were imaged live using an optical imaging system, Optix eXplorer (GE Healthcare Systems) at different time points (30 min, 90 min, 4 h). […] The bio-distribution of the labeled peptides in different organs and tissues were visualized and relatively quantified by optical imaging analysis. This protocol allows for visualization of the location of the labeled peptides and how the location changes over time. […] Nodes that accumulated the labeled peptides are indicated by line 1 (superfacial cervical nodes), line 4 (axillary nodes), line 5 (brachial nodes), line 8 (mesenteric nodes) and line 9 (inguinal nodes). FIGS. 8, 9 and 10 show the amounts of labeled peptides in various organs ex vivo.

[8] = single i.v. 10, 100 and 500 mg/kg

KEFLHPSKVDLPR [SorC13, KEFLHPSKVDLPR]
% ΔT/ΔC (tumor volume normalized to control) ([1]; Day 6, SorC13 300 mg/kg): 66.0%
% ΔT/ΔC (tumor volume normalized to control) ([1]; Day 12, SorC13 300 mg/kg): 1.0%
% ΔT/ΔC (tumor volume normalized to control) ([1]; Day 18 (rest period), SorC13 300 mg/kg): 54.5%
% ΔT/ΔC (tumor volume normalized to control) ([1]; Day 24 (rest period), SorC13 300 mg/kg): 48.7%
Mean tumour volume ([1]; after 12-day rest post-treatment, SorC13 300 mg/kg): 55.76 mm^3
Mean tumor volume ([1]; day 12 of treatment, SorC13 300 mg/kg i.p. daily): 43.61 mm^3

EGKLSSNDTEGGLCKEFLHPSKVDLPR [SorC27]
Decline in cell viability [2]: +
Maximum Tolerated Dose in CD-1 mice by single i.v. dose ([3]; 10, 100 and 500 mg/kg doses): No toxic effects
adverse events over 5-day post-injection observation period [3, 8]: no adverse events
necropsy changes in major organ systems [3, 8]: no significant changes in all major organ systems
Apoptosis Index (1 = no effect) ([4]; Day 6, SorC27 100 uM): 1.4
Apoptosis Index (1 = no effect) ([4]; Day 7, SorC27 10 uM): 2.2
Apoptosis Index (1 = no effect) ([4]; Day 7, SorC27 100 uM): 2.8
Decline in cell viability ([4]; SorC27): +
solubility [5]: > 200 mg/mL
Clearance route in iv mice @ 5 mg/kg [6]: Rapid via kidney.
detectable in tissues after perfusion ([7]; Cy5.5-tagged peptide, 24 hours): still detectable
tissue localization ([7]; Cy5.5-tagged peptide, i.v. 100 ug): localize predominantly in lymph nodes, lung, liver and kidney
tissues with highest percent uptake (of total fluorescence) after perfusion ([7]; Cy5.5 labeled, 4 and 24 hours after i.v. injection): liver, lung and kidney

— US10058587B2, “Peptide composition for cancer treatment by inhibiting TRPV6 calcium channel activity” (priority 2008, dated 2018)
